Data taken from patent US10981911B2, “Imidazopyrrolopyridine as inhibitors of the JAK family of kinases” (Janssen Pharmaceutica NV, priority 2016, dated 2021).

Legend:
Tyk2-JH1JH2 = Tyk2-JH1JH2 (Homo sapiens (Human), UniProt P29597, C1142A/C936A); assay: Enzymatic inhibition assay (RapidFire HTMS), Tyk2; assay type: biochemical; settings: 50 μM ATP, 200 μM substrate
Method in brief: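 Compounds were tested in duplicate as 11-point 1:3 or 1:4 DMSO dilutions (≤0.25% DMSO final) in 20 μL reactions at 25 °C for 90 min, with Tyk2 pre-incubated 30 min with 2 mM ATP. Reactions were quenched with TFA plus internal standard peptide, and phosphorylated product was quantified by RapidFire C4 SPE–ESI MS.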

MDCK-MDR1 cell line = assay: MDCK-MDR1 permeability assay; assay type: in vitro ADME; settings: @ 5 μM, apical to basolateral, with P-gp inhibitor elacridar (2 μM)
Method in brief: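 MDCK-MDR1 monolayers (passage 6-30, day 4) dosed at 5 μM in HBSS pH 7.4, A-B with or without 2 μM elacridar, and B-A, 60 min at 37° C. LC/MS/MS quantitation; Papp=(dQ/dt)/(C0×S), efflux ratio = Papp(B-A)/Papp(A-B).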

Sequence of Tyk2-JH1JH2 (P29597 580-1182 C936A/C1142A): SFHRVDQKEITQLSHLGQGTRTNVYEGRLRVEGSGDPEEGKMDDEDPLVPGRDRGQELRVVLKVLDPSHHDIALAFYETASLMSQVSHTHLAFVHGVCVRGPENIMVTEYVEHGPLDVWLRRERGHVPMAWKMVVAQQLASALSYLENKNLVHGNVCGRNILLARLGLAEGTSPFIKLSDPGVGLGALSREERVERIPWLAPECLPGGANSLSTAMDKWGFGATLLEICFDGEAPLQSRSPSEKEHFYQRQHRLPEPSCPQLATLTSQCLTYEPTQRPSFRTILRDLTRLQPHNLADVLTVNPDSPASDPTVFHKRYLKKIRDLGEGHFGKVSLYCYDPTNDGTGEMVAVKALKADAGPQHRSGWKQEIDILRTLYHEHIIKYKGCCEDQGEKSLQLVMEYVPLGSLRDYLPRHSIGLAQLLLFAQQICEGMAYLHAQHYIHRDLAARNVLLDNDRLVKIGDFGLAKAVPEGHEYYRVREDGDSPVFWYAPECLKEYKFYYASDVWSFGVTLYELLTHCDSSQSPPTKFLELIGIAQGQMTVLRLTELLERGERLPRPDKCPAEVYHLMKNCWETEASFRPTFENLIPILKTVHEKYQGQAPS

| Structure (SMILES) | IC50 (Tyk2-JH1JH2) | MDCK-MDR1 P^eapp(A-B) (MDCK-MDR1 cell line) |
| --- | --- | --- |
| CC(C)(O)CNC(=O)Cc1nc2cnc3[nH]ccc3c2n1[C@H]1CC[C@H](CC#N)CC1 [Ex. 1, 2-(1-((1r,4r)-4-(Cyanomethyl)cyclohexyl)-1,6-dihydroimidazo[4,5-d]pyrrolo[2,3-b]pyridin-2-yl)-N-(2-hydroxy-2-methylpropyl)acetamide] | 6.9 nM | – |
| N#CC[C@H]1CC[C@H](n2c(CC(=O)NC3CCOCC3)nc3cnc4[nH]ccc4c32)CC1 [Ex. 5, 2-(1-((1r,4r)-4-(Cyanomethyl)cyclohexyl)-1,6-dihydroimidazo[4,5-d]pyrrolo[2,3-b]pyridin-2-yl)-N-(tetrahydro-2H-pyran-4-yl)acetamide] | – | 0.5 10^−6 cm/sec |
| CC(C)(C#N)CNC(=O)Cc1nc2cnc3[nH]ccc3c2n1[C@H]1CC[C@H](CC#N)CC1 [Ex. 22, N-(2-Cyano-2-methylpropyl)-2-(1-((1r,4r)-4-(cyanomethyl)cyclohexyl)-1,6-dihydroimidazo[4,5-d]pyrrolo[2,3-b]pyridin-2-yl)acetamide] | 4.1 nM | – |
| N#CC[C@H]1CC[C@H](n2c(CC(=O)NCC3(O)CCC3)nc3cnc4[nH]ccc4c32)CC1 [Ex. 34, 2-(1-((1r,4r)-4-(Cyanomethyl)cyclohexyl)-1,6-dihydroimidazo[4,5-d]pyrrolo[2,3-b]pyridin-2-yl)-N-((1-hydroxycyclobutyl)methyl)acetamide] | 3.1 nM | – |
| N#CCC12CCC(NC(=O)Cc3nc4cnc5[nH]ccc5c4n3[C@H]3CC[C@H](CC#N)CC3)(CC1)C2 [Ex. 55, N-(4-(Cyanomethyl)bicyclo[2.2.1]heptan-1-yl)-2-(1-((1r,4r)-4-(cyanomethyl)cyclohexyl)-1,6-dihydroimidazo[4,5-d]pyrrolo[2,3-b]pyridin-2-yl)acetamide] | 4.7 nM | – |
| N#CC[C@H]1CC[C@H](n2c(CC(=O)NCC3(O)CC3)nc3cnc4[nH]ccc4c32)CC1 [Ex. 85, 2-(1-((1r,4r)-4-(Cyanomethyl)cyclohexyl)-1,6-dihydroimidazo[4,5-d]pyrrolo[2,3-b]pyridin-2-yl)-N-((1-hydroxycyclopropyl)methyl)acetamide] | 5.4 nM | – |
